In patent US7345065B2, “Methods and compositions for alleviating pain” (Allergan, Inc., priority 2002, dated 2008):

Assays:
Assay type in all cases: cell-based
[1] = molecular target: T1, rat α-2B (RNG gene) (Rattus norvegicus, UniProt P19328); test: RSAT assay, α-2B receptor; conditions: for EC50: NA = not active (EC50 ≧ 10,000); for fold greater activity at the α-2B receptor than the α-2C receptor: RSAT; for Emax: read-out: % efficacy 2B
T1 construct: expressed in transfected cells; host or cells: NIH-3T3
T1 sequence (P19328 1-453): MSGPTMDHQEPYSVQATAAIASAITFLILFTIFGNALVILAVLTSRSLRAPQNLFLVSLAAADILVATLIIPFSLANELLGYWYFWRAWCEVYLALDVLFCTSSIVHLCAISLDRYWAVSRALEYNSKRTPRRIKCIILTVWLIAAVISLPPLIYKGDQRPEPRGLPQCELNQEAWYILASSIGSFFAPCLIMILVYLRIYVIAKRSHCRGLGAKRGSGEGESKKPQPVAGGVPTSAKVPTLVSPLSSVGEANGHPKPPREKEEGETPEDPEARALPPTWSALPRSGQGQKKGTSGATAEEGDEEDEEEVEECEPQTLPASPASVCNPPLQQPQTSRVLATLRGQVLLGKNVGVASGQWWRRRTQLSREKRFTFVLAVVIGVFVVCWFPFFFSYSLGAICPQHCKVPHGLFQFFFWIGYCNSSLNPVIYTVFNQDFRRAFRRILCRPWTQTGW
Text: (§1) Agonist and antagonist activity, including selectivity and specificity, can be characterized using any of a variety of routine assays, including, without limitation, Receptor Selection and Amplification Technology (RSAT) assays (Messier et al., Pharmacol. Toxicol. 76:308-11 (1995); Conklin et al., Nature 363:274-6 (1993)); cyclic AMP assays (Shimizu et al., J. Neurochem. 16:1609-1619 (1969)); and cytosensor microphysiometry assays (Neve et al., J. Biol. Chem. 267:25748-25753 (1992)). Such assays generally are performed using cells that naturally express only a single α-adrenergic receptor subtype, or using transfected cells expressing a single recombinant α-adrenergic receptor subtype. The adrenergic receptor can be a human receptor or homolog thereof having a similar pharmacology. As disclosed herein, RSAT assays were performed using cells transiently transfected with human α-2A (c10 gene); rat α-2B (RNG gene); human α-2C (c4 gene); bovine α-1A; hamster α-1B; and rat α-1D.
(§2) The RSAT assay measures receptor-mediated loss of contact inhibition resulting in selective proliferation of receptor-containing cells in a mixed population of confluent cells. The increase in cell number is assessed with an appropriate detectable marker gene such as β-galactosidase, if desired, in a high throughput or ultra high throughput assay format. Receptors that activate the G protein, Gq, elicit the proliferative response. α-adrenergic receptors, which normally couple to Gi, activate the RSAT response when coexpressed with a hybrid Gq protein containing a Gi receptor recognition domain, designated Gq/i5.
(§3) As an example, an RSAT assay can be performed essentially as follows. NIH-3T3 cells are plated at a density of 2×10^6 cells in 15 cm dishes and maintained in Dulbecco's modified Eagle's medium supplemented with 10% calf serum. One day later, cells are cotransfected by calcium phosphate precipitation with mammalian expression plasmids encoding p-SV-β-galactosidase (5-10 μg), receptor (1-2 μg) and G protein (1-2 μg). Carrier DNA, for example 40 μg salmon sperm DNA, also can be included to increase transfection efficiency. Fresh media is added on the following day; one to two days later, cells are harvested and frozen in 50 assay aliquots. Transfected cells are thawed, and 100 μl of cells added to 100 μl aliquots of compound to be tested, with various concentrations assayed in triplicate, for example, in 96-well plates. Incubation continues for 72 to 96 hours at 37°. After washing with phosphate-buffered saline, β-galactosidase activity is determined by adding 200 μl of chromogenic substrate (3.5 mM O-nitrophenyl-β-D-galactopyranoside/0.5% NP-40 in phosphate buffered saline), incubating overnight at 30°, and measuring optical density at 420 nm. The absorbancy is a measure of enzyme activity, which depends on cell number and reflects receptor-mediated cell proliferation. The EC50 and maximal effect (efficacy) of each drug at each receptor is determined.

[2] = molecular target: T2, human α-2C (c4 gene) (Homo sapiens, UniProt P18825); test: RSAT assay, α-2C receptor; conditions: for EC50: NA = not active (EC50 ≧ 10,000); for Emax: in brackets under the RSAT activity, printed without % sign, read-out: % efficacy 2C
T2 construct: expressed in transfected cells; host or cells: NIH-3T3
T2 sequence (P18825 1-462): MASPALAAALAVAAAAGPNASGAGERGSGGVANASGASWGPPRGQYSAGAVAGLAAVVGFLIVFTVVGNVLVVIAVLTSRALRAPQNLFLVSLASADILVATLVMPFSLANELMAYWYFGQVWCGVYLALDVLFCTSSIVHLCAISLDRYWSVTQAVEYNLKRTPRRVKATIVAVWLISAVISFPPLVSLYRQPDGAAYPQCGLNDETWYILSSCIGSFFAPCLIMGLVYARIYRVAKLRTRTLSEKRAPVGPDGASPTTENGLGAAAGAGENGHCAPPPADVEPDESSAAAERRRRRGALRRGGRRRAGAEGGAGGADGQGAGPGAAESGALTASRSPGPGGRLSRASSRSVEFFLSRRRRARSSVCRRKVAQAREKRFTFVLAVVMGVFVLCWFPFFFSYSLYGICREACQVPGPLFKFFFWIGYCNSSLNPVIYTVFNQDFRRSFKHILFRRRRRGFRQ
Text: as §1, §2, §3

[3] = molecular target: T3, rat α-1D (Rattus norvegicus, UniProt P23944); test: RSAT assay, α-1D receptor; conditions: NA = not active (EC50 ≧ 10,000)
T3 construct: expressed in transfected cells; host or cells: NIH-3T3
T3 sequence (P23944 1-561): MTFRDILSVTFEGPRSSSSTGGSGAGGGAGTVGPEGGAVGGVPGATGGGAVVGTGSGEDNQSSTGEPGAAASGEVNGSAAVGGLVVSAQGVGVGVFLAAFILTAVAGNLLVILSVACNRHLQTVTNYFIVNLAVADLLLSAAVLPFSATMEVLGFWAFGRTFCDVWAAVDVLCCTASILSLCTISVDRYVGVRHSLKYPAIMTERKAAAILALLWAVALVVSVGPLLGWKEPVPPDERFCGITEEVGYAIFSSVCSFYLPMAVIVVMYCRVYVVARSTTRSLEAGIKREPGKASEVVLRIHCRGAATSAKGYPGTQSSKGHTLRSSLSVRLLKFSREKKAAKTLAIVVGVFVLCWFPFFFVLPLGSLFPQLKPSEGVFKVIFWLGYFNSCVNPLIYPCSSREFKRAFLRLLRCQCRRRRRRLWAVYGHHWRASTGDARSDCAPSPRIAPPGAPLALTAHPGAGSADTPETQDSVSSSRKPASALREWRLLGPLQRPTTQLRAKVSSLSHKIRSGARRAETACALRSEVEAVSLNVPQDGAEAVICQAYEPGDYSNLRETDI
Text: as §1, §2
As an example, an RSAT assay can be performed essentially as follows. […] After washing with phosphate-buffered saline, β-galactosidase activity is determined by adding 200 μl of chromogenic substrate (3.5 mM O-nitrophenyl-β-D-galactopyranoside/0.5% NP-40 in phosphate buffered saline), incubating overnight at 30°, and measuring optical density at 420 nm. […] The EC50 and maximal effect (efficacy) of each drug at each receptor is determined.

Row | EC50 [1] | fold greater activity at the α-2B receptor than the α-2C receptor [1] | Emax [1] | EC50 [2] | EC50 [3] | Emax [2] | Compound
1 | 24 nM | about 100 fold | 90% | > 2000 nM | > 2000 nM |  | O=C1c2ccccc2CCC1Cc1c[nH]c(=S)[nH]1 (racemic) [Compound 3]
2 | 15 nM | more than 10 fold | 100% | 202 nM | > 2000 nM | 0.5% | O=c1[nH]cc(CC2CCc3cc(F)ccc32)[nH]1 (stereo not shown) [Compound 4]
3 | 42 nM |  | 80% | 247 nM | > 2000 nM | 0.3% | S=c1[nH]cc(CC2CC=CC2)[nH]1 [Compound 11]
